Read-outs that look alike come from different tables or passages of the source.
Legend:
[1] = Intratumor distribution of topotecan; format: in vivo, CD1 nude mice; conditions: U87, TPT25: 25 μg/h topotecan, n=8
[2] = CD1 nude mice; cited from earlier work
[3] = format: in vivo, CD1 athymic nude mice; conditions: CD1 athymic nude, mouse, iv, 4 mg/kg, 4 mg/kg i.v., mean ± SD
U87 cells [4] = experiment: Drug sensitivity; format: cell-based, human; conditions: U87, gefitinib alone 0.001-50 μM
U87 cells [5] = experiment: Intracellular accumulation of topotecan in vitro; format: cell-based, human; conditions: topotecan 0.1 μM, gefitinib 1 or 10 μM, dose-dependent
MT330 cells [6] = experiment: Intracellular accumulation of topotecan in vitro; format: cell-based, human; conditions: topotecan 0.1 μM, gefitinib 1 or 10 μM, dose-dependent
MT330 cells [7] = experiment: Drug sensitivity; format: cell-based, human; conditions: MT330, gefitinib alone 0.001-50 μM
[8] = cited from earlier work
[9] = subcutaneous glioma xenografts, for 8 hours after a single oral dose of 55 mg/kg; cited from earlier work

Css,plasma (unbound lactone) (Steady-state; 25 μg/h topotecan infusion, before gefitinib, n=15) [ng/mL] | Css,tECF (unbound topotecan lactone in tumor ECF) (Steady-state; U87, 25 μg/h topotecan infusion, after gefitinib 200 mg/kg, n=10) [ng/mL] | Css,tECF (unbound topotecan lactone in tumor ECF) (Steady-state; U87, 25 μg/h topotecan infusion, before gefitinib, n=10) [ng/mL] | Css,tECF (unbound topotecan lactone in tumor ECF) (Steady-state; U87, TPT12-GEF: 12.5 μg/h topotecan after 200 mg/kg gefitinib, n=3) [ng/mL] | Atot,tumor (total topotecan lactone in tumor homogenate at steady-state) [1] [ng/mg tumor] | Kp ([3]; brain extracellular fluid (microdialysate) / plasma, Pbrain (brain ECF-to-plasma AUC ratio of unbound topotecan lactone), non-tumor-bearing CD1 nude mice, n=7) | Kp ([3]; Pcontralateral (contralateral brain ECF-to-plasma AUC ratio), U87 tumor-bearing mice, n=5) | SMILES | Unbound fraction in plasma [2] [%] | Effect on cell growth (U87 cells [4]) | Enhancement of topotecan accumulation by gefitinib (U87 cells [5]) [%] | Enhancement of topotecan accumulation by gefitinib (MT330 cells [6]) [%] | Effect on cell growth (MT330 cells [7]) | Effect of gefitinib on topotecan lactone plasma clearance [8] | Intratumor gefitinib concentration [9] [µM]
34 ± 8 | 30 ± 12 | 22 ± 10 | 6.4 ± 0.8 | 47 ± 21 | 0.3 ± 0.11 | 0.42 ± 0.11 | CC[C@@]1(O)C(=O)OCc2c1cc1n(c2=O)Cc2cc3c(CN(C)C)c(O)ccc3nc2-1 [topotecan] | 27 | – | – | – | – | – | –
– | – | – | – | – | – | – | COc1cc2ncnc(Nc3ccc(F)c(Cl)c3)c2cc1OCCCN1CCOCC1 [gefitinib] | – | did not substantially affect growth | ≤ 36 | ≤ 36 | did not substantially affect growth | halves | > 20
